Test results taken from patent US20240016783A1 (Icahn School of Medicine at Mount Sinai, priority 2020, published 2024).

Experiments:
[1] = system: Alzheimer's disease patients; details: in vivo
rodents = details: through clustering of dendritic spines; cited from earlier work
rodent models = details: cited from earlier work
[2] = system: mouse model of AD (SXFAD); details: early-onset aggressive mouse model of AD (SXFAD); cited from earlier work

Abdominal discomfort ([1]; human, 6 months): 15.4%
Cough ([1]; human, 6 months): 19.23%
Diarrhea ([1]; human, 6 months): 15.4%
Dizziness ([1]; human, 6 months): 15.4%
Elevated liver enzymes ([1]; human, 6 months): 7.7%
Nausea ([1]; human, 6 months): 7.7%
Urinary frequency ([1]; human, 6 months): 11.5%
SMILES: Nc1nc2ccc(OC(F)(F)F)cc2s1 [Riluzole, 2-Amino-6-(trifluoromethoxy)benzothiazole]
Adverse event that led to removal from the trial ([1]; human, 6 months): 15.4%
Patients having at least one adverse event during the study ([1]; human, 6 months): 88.5%
Serious adverse events ([1]; human, 6 months): 7.7%
Difference in adverse events between treatment groups [1]: no statistical differences
Age-related cognitive decline (rodents): can prevent age-related cognitive decline
Gene expression profiles related to aging and AD (rodent models): rescues gene expression profiles related to aging and AD
Gene expression changes in immune pathways [2]: reversed many of the gene expression changes in immune pathways
Hippocampal-dependent spatial memory decline [2]: prevented hippocampal-dependent spatial memory decline
